Like-named read-outs stand apart in the source and are kept apart here.
What was measured:
[1] = Stabilization of Kathon 39 FG / bromo-2-nitropropane-1,3-diol basic preparation: appearance and pH on storage
Description: A basic preparation which contained 88.34% of purified water, 6.00% of bromo-2-nitropropane-1,3-diol and 5.66% of Kathon 39 FG was made. […] Kathon 39 FG is a mixture of CMI and MI prepared with solvent and a low salt and water content (available from Rohm & Haas Company). Thereafter, 100 g of the basic preparation were brought to a pH of 5.16 with triethanolamine (preparation A) and with imidazole to a pH of 5.32 (preparation B). Preparation C was prepared with the addition of 0.1% of pyrion disulphide to 100 g of the basic preparation. The basic preparation D (without addition) acted as reference. The appearance of a freshly made preparation and the appearance as affected by increasing storage times were examined. In addition, the pH of all preparations was tested after 35 days.

[2] = Description: Moreover, it is preferred that the reaction is carried out over a period of 5 minutes to 4 hours, preferably up to 120 minutes and in particular up to 60 minutes. Suitable reaction temperatures are in the range of from 0 to 80° C., preferably 10 to 40° C. and in particular 20 to 30° C. If appropriate, the stabilizer solution obtained after the reaction can be filtered in order to remove troublesome solid components.

SMILES | stabilization of aqueous CMI/MI-based preparation containing 6.00% of bromo-2-nitropropane-1,3-diol ([1]; additive to the basic preparation, versus basic preparation D) | solubility in water [2] [% by weight] | stabilization of aqueous CMI/MI-based preparation containing 6.00% of bromo-2-nitropropane-1,3-diol [1]
c1c[nH]cn1 [imidazole] | stabilizing effect on the composition, albeit to a lesser extent | – | –
[O-][n+]1ccccc1SSc1cccc[n+]1[O-] [pyrion disulphide, 2,2′-dithiobis(pyridine N-oxide)] | – | 0.9 | improved
